In PubChem BioAssay (NCI):
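All cell lines were grown in 96-well plates and treated with compound for 48 hours. GI50 = concentration required for 50% inhibition of growth. TGI marks complete inhibition of growth.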

Experiments:
Assay in all cases: NCI tumour cell line growth inhibition, 48 h
[1] = test system: HCC-2998 colon
[2] = test system: SK-OV-3 ovarian
[3] = test system: NCI-H23 lung
[4] = test system: MDA-MB-231 breast
[5] = test system: RPMI-8226 leukemia
[6] = test system: HS 578T breast
[7] = test system: MOLT-4 leukemia
[8] = test system: DU-145 prostate
[9] = test system: PC-3 prostate
[10] = test system: NCI/ADR-RES ovarian

In the case of `CCS(=O)(=O)c1ccc(OC)c(Nc2ncc(-c3cccc(-c4ccccc4F)c3)o2)c1`, the GI50 [1] is reported as over 25 µM, the TGI [1] is reported as over 25 µM and the GI50 [2] is reported as 5.1 µM. It also gave a TGI [2] of 14.3 µM, a GI50 [3] of over 23.8 µM and a TGI [3] of over 25 µM. It also gave a GI50 [4] of 14.1 µM, a TGI [4] of over 25 µM and a GI50 [5] of 23.9 µM. For the same compound, the TGI [5] was over 25 µM, the GI50 [6] was 3.63 µM and the TGI [6] was 15.8 µM. It also gave a GI50 [7] of over 25000 nM, a TGI [7] of over 25 µM and a GI50 [8] of over 25 µM. For the same compound, the TGI [8] was over 25 µM, the GI50 [9] was 15.5 µM and the TGI [9] was over 25 µM. For the same compound, the GI50 [10] was 15.4 µM and the TGI [10] was over 25 µM.

With `NC1=NN(c2ccccc2)C(=O)C1C(=O)C(=O)NC1C2CC3CC(C2)CC1C3` (configuration not stated) the TGI [1] was over 100 µM, the TGI [2] was over 100 µM and the TGI [3] was over 100 µM. For the same compound, the TGI [7] was over 100 µM.

Work on `Cc1oncc1C(=O)Nc1ccc(C(F)(F)F)cc1` yielded a GI50 [1] of 64.5 µM, a TGI [1] of over 100 µM and a GI50 [2] of over 100 µM. For the same compound, the TGI [2] was over 100 µM, the GI50 [3] was 42.4 µM and the TGI [3] was over 100 µM. For the same compound, the GI50 [4] was 25.9 µM, the TGI [4] was over 100 µM and the GI50 [5] was 17.5 µM. For the same compound, the TGI [5] was over 100 µM, the GI50 [6] was 54.5 µM and the TGI [6] was over 100 µM. The GI50 [7] was 36400 nM, the TGI [7] was over 100 µM and the GI50 [8] was 56.1 µM. For the same compound, the TGI [8] was over 100 µM, the GI50 [9] was 13.9 µM and the TGI [9] was over 100 µM. For the same compound, the GI50 [10] was 45.1 µM and the TGI [10] was over 100 µM.

Compound `O=S1Cc2ccccc2CS1` (configuration not stated) has a TGI [1] of 93.2 µM, a TGI [2] of over 100 µM and a TGI [3] of 28.3 µM. For the same compound, the TGI [5] was 38.2 µM and the TGI [7] was 56 µM.

For `C=CCOC1=C2CC[C@H](O)[C@@]2(C)CCC1=O`, the TGI [1] was over 100 µM, the TGI [2] was over 100 µM and the TGI [5] was over 100 µM. The TGI [7] was over 100 µM.

Work on `Clc1cccc(Cn2cc(Cc3cn(Cc4cccc(Cl)c4)c4ccccc34)c3ccccc32)c1` yielded a GI50 [1] of over 100 µM, a TGI [1] of over 100 µM and a GI50 [2] of over 100 µM. For the same compound, the TGI [2] was over 100 µM, the GI50 [3] was over 100 µM and the TGI [3] was over 100 µM. The GI50 [4] was 52 µM, the TGI [4] was over 100 µM and the GI50 [5] was over 100 µM. For the same compound, the TGI [5] was over 100 µM, the GI50 [6] was over 100 µM and the TGI [6] was over 100 µM. It also gave a GI50 [7] of over 100000 nM, a TGI [7] of over 100 µM and a GI50 [8] of over 100 µM. It also gave a TGI [8] of over 100 µM, a GI50 [9] of over 100 µM and a TGI [9] of over 100 µM.

`C[C@@]12CCC[C@@](C)(C(=O)O)C1CC[C@]13C=C(CO)[C@](O)(CCC12)C3` (some centres not stated) showed a GI50 [1] of over 100 µM, a TGI [1] of over 100 µM and a GI50 [2] of over 100 µM. For the same compound, the TGI [2] was over 100 µM, the GI50 [3] was over 100 µM and the TGI [3] was over 100 µM. It also gave a GI50 [4] of over 100 µM, a TGI [4] of over 100 µM and a GI50 [5] of over 100 µM. It also gave a TGI [5] of over 100 µM, a GI50 [6] of over 100 µM and a TGI [6] of over 100 µM. The GI50 [7] was over 100000 nM, the TGI [7] was over 100 µM and the GI50 [8] was over 100 µM. For the same compound, the TGI [8] was over 100 µM, the GI50 [9] was over 100 µM and the TGI [9] was over 100 µM. For the same compound, the GI50 [10] was over 100 µM and the TGI [10] was over 100 µM.

Work on `CNC(=O)c1cc(Oc2ccc3nc(NC(=O)c4cc(C(F)(F)F)cc(C(F)(F)F)c4)sc3c2)ccn1` yielded a GI50 [1] of 6.63 µM, a TGI [1] of 24.7 µM and a GI50 [2] of 2.52 µM. It also gave a TGI [2] of 7.98 µM, a GI50 [3] of 3.37 µM and a TGI [3] of 17.7 µM. It also gave a GI50 [4] of 2.88 µM, a TGI [4] of 6.63 µM and a GI50 [5] of 2.42 µM. It also gave a TGI [5] of over 100 µM, a GI50 [6] of 3.15 µM and a TGI [6] of 13.3 µM. The GI50 [7] was 2620 nM, the TGI [7] was 12.4 µM and the GI50 [8] was 3.69 µM. The TGI [8] was 15.9 µM, the GI50 [9] was 2.53 µM and the TGI [9] was 12.8 µM. It also gave a GI50 [10] of 3.67 µM and a TGI [10] of 19.1 µM.

With `Cc1ccc(NC(=O)C2C(=O)C(=O)N(c3ccc(C)cc3)C2=O)cc1` (configuration not stated) the TGI [1] was over 100 µM, the TGI [3] was over 100 µM and the TGI [7] was over 100 µM.

`COC(=O)C(=C\Sc1ccccc1)/C=C/C(=O)OC(C)(C)C` gave a TGI [1] of 21.6 µM, a TGI [2] of 43.9 µM and a TGI [3] of 33.1 µM. For the same compound, the TGI [5] was 8.48 µM and the TGI [7] was 9.44 µM.

With `COc1cc2c3c(n(CCCN=[N+]=[N-])c(=O)c2cc1OC)-c1ccc(N)cc1C3=O` the GI50 [1] was 0.258 µM, the TGI [1] was 0.856 µM and the GI50 [2] was 0.277 µM. For the same compound, the TGI [2] was 0.716 µM, the GI50 [3] was 0.17 µM and the TGI [3] was 0.73 µM. For the same compound, the GI50 [4] was 0.625 µM, the TGI [4] was 2.18 µM and the GI50 [5] was 0.0306 µM. For the same compound, the TGI [5] was 0.446 µM, the GI50 [6] was 1.53 µM and the TGI [6] was over 24.9 µM. For the same compound, the GI50 [7] was 73.1 nM, the TGI [7] was 1.46 µM and the GI50 [8] was 0.117 µM. The TGI [8] was 1.42 µM, the GI50 [9] was 0.27 µM and the TGI [9] was 3.58 µM. For the same compound, the GI50 [10] was 0.316 µM and the TGI [10] was 1.41 µM.

`CCOC(=O)NC(=O)c1cn(CCCCCCCCCCC(=O)N2CCN(CCn3cc(C(=O)NC(=O)OCC)c(=O)[nH]c3=O)CC2)c(=O)[nH]c1=O` was tested, and the TGI [1] was over 100 µM, the TGI [2] was over 100 µM and the TGI [3] was over 100 µM. For the same compound, the TGI [5] was over 100 µM and the TGI [7] was over 100 µM.

For `S=c1cn[nH]c2ccc(Br)cc12`, the TGI [1] was over 100 µM, the TGI [2] was over 100 µM and the TGI [3] was over 100 µM. The TGI [4] was over 100 µM, the TGI [5] was over 100 µM and the TGI [6] was over 100 µM. It also gave a TGI [7] of over 100 µM, a TGI [8] of over 100 µM and a TGI [10] of over 100 µM.

In the case of `O=C(Nc1cccc(-n2cc(-c3ccncc3)c(-c3cc(O)cc(Cl)c3)n2)c1)Nc1ccc(Cl)c(Cl)c1`, the GI50 [1] is reported as 2.93 µM, the TGI [1] is reported as 8.99 µM and the GI50 [2] is reported as 3.4 µM. For the same compound, the TGI [2] was 9.43 µM, the GI50 [3] was 2.41 µM and the TGI [3] was 6.29 µM. The GI50 [4] was 1.01 µM, the TGI [4] was 7.7 µM and the GI50 [5] was 1.44 µM. The TGI [5] was 4.3 µM, the GI50 [6] was 3.23 µM and the TGI [6] was over 100 µM. For the same compound, the GI50 [7] was 1430 nM, the TGI [7] was 5.16 µM and the GI50 [8] was 2.8 µM. It also gave a TGI [8] of 10.1 µM, a GI50 [9] of 1.69 µM and a TGI [9] of 5.68 µM. It also gave a GI50 [10] of 3.21 µM and a TGI [10] of over 100 µM.

`CC(/C=C/C=C/C=C/C=C/C=C/C(O)=C1/C(=O)C(CCC(=O)O)N(C)C1=O)=C\C(C)C(OC1CC(O)C(O)C(C)O1)C(C)C` (configuration not stated) gave a TGI [1] of 7.53 µM, a TGI [3] of 9.75 µM and a TGI [4] of 12.2 µM. The TGI [5] was 9.25 µM, the TGI [6] was 32.3 µM and the TGI [7] was 7.08 µM. For the same compound, the TGI [8] was 12.4 µM, the TGI [9] was 16.6 µM and the TGI [10] was 50.2 µM.

`Nc1ccccc1S(=O)c1ccccc1` (configuration not stated) was tested, and the TGI [1] was over 100 µM, the TGI [2] was over 100 µM and the TGI [3] was over 100 µM. It also gave a TGI [5] of over 100 µM and a TGI [7] of over 100 µM.

For `CCOC(=O)/C(=C/c1cc(OC)ccc1OC)CC(=O)O`, the TGI [1] was over 31.6 µM, the TGI [2] was over 100 µM and the TGI [3] was over 100 µM. For the same compound, the TGI [5] was over 31.6 µM and the TGI [7] was over 31.6 µM.

`CC1C(=O)CCC1C(Sc1ccccc1)(Sc1ccccc1)Sc1ccccc1` (configuration not stated) showed a TGI [1] of over 100 µM, a TGI [2] of over 100 µM and a TGI [3] of over 100 µM. For the same compound, the TGI [5] was 40.6 µM and the TGI [7] was 37.9 µM.
